From patent publication US20210169897A1, “Concentrated Fulvestrant Compositions” (Nevakar Inc., priority 2017, published 2021)
In brackets after ≈: the same amount, converted by molar mass. Like-named read-outs stand apart in the source and are kept apart here.

Experiments:
[1] = Saturation solubility of fulvestrant in combinations of solvents/detergents (Table 2); type: physicochemical
Procedure: To increase solubility, various other solvents, co-solvents, and surfactants were tested. For example, in some embodiments the monohydroxylated fatty acids (e.g., free ricinoleic acid) in the solvent were substituted with other lipid solvents such as castor oil or oleic acid. […] Here, some formulations including lipid solvents (especially in combination with ethanol and/or benzyl alcohol) can solubilize fulvestrant at a concentration higher than 60 mg/ml. Yet, most of such formulations capable of solubilizing fulvestrant at a higher concentration (e.g., higher than 60 mg/ml) require higher concentration of alcohols (e.g., higher than 30%, etc.), which may cause instability of the formulation (e.g., precipitation of fulvestrant over time, etc.). Moreover, some solvents also required substantial quantities of emulsifier (e.g., Cremophor™ (hydrogenated castor oil reacted with ethylene oxide)), which is not desirable as an ingredient for injection at the tested concentrations. Indeed, it is generally preferred that the fulvestrant compositions and solutions for injection are substantially free (i.e., less than 1% w/v, or less than 0.1% w/v, or less than 0.01% w/v) from surfactants, detergents, and/or emulsifiers.

[2] = background, cited from earlier work
[3] = physchem

## C[C@]12CC[C@@H]3c4ccc(O)cc4C[C@@H](CCCCCCCCC[S+]([O-])CCCC(F)(F)C(F)(F)F)[C@H]3[C@@H]1CC[C@@H]2O (stereo partly drawn) [Fulvestrant]
[1]; 12.5% ethanol, 75% castor oil, 12.5% Cremophor RH 40 (% w/v), oil or lipid, thermodynamic from solid, No 11 (% w/v): 12.5% Ethanol, 75% Castor Oil, 12.5% Cremophor RH 40, read-out: Solubility
  solubility: 128 mg/mL
[1]; 50% castor oil, 10% Lipoid E 80, 40% ethanol (% w/v), oil or lipid, thermodynamic from solid, No 12 (% w/v): 50% Castor Oil, 10% Lipoid E 80, 40% Ethanol, read-out: Solubility
  solubility: 49.3 mg/mL
[1]; 50% castor oil, 25% ethanol, 25% Cremophor 40 (% w/v), oil or lipid, thermodynamic from solid, No 9 (% w/v): 50% Castor Oil, 25% Ethanol, 25% Cremophor 40, read-out: Solubility
  solubility: 134 mg/mL
[1]; 50% oleic acid, 25% ethanol, 25% Cremophor 40 (% w/v), oil or lipid, thermodynamic from solid, No 8 (% w/v): 50% Oleic Acid, 25% Ethanol, 25% Cremophor 40, read-out: Solubility
  solubility: 130 mg/mL
[1]; 60% castor oil, 18% BA, 13% ethanol, 9% Lipoid E 80 (% w/v), oil or lipid, thermodynamic from solid, No 14 (% w/v): 60% Castor Oil, 18% BA, 13% Ethanol, 9% Lipoid E 80, read-out: Solubility
  solubility: 63 mg/mL
[1]; 70% castor oil, 20% oleic acid, 5% BA, 5% ethanol (% w/v), oil or lipid, thermodynamic from solid, No 16 (% w/v): 70% Castor Oil, 20% Oleic Acid, 5% BA, 5% Ethanol, read-out: Solubility
  solubility: 49.9 mg/mL
[1]; 75% oleic acid, 12.5% ethanol, 12.5% Cremophor RH 40 (% w/v), oil or lipid, thermodynamic from solid, No 10 (% w/v): 75% Oleic Acid, 12.5% Ethanol, 12.5% Cremophor RH 40, read-out: Solubility
  solubility: 113 mg/mL
[1]; 75% oleic acid, 25% castor oil (% w/v), oil or lipid, thermodynamic from solid, No 5 (% w/v): 75% Oleic Acid, 25% Castor Oil, read-out: Solubility
  solubility: 15.5 mg/mL
[1]; 85% castor oil, 12% BA, 3% HP-B-CD (% w/v), oil or lipid, thermodynamic from solid, No 15 (% w/v): 85% Castor Oil, 12% BA, 3% HP-B-CD, read-out: Solubility
  solubility: 17.2 mg/mL
[1]; No 13 (% w/v): 15% Ethanol, 15% Castor Oil, 15% Benzyl Alcohol, 10% Lipoid E 80
  solubility: 45.95 mg/mL
[1]; oil or lipid, thermodynamic from solid, No 6 (% w/v): 49.5% Oleic Acid, 49.5% Castor Oil, 1% Polysorbate 20, read-out: Solubility
  solubility: 22.8 mg/mL
[1]; oil or lipid, thermodynamic from solid, No 7 (% w/v): 74.5% Oleic Acid, 24.5% Castor Oil, 1% Polysorbate 20, read-out: Solubility
  solubility: 15.7 mg/mL
[1]; oil or lipid, thermodynamic from solid, No 17 (% w/v): 10% Ethanol, 65% Castor Oil, 20% Oleic Acid, 5% Benzyl Alcohol, read-out: Solubility
  solubility: 68.8 mg/mL
[1]; oil or lipid, thermodynamic from solid, No 18 (% w/v): 5% Ethanol, 65% Castor Oil, 20% Oleic Acid, 10% Benzyl Alcohol, read-out: Solubility
  solubility: 39.5 mg/mL
[1]; oil or lipid, thermodynamic from solid, No 19 (% w/v): 22.5% Castor Oil, 67.5% Oleic Acid, 5% BA, 5% Ethanol, read-out: Solubility
  solubility: 47.3 mg/mL
[1]; oil or lipid, thermodynamic from solid, No 20 (% w/v): 45% Oleic Acid, 45% Castor Oil, 5% Ethanol, 5% Benzyl Alcohol, read-out: Solubility
  solubility: 43.7 mg/mL
[1]; oil or lipid, thermodynamic from solid, No 21 (% w/v): 5% Cremophor EL 35, 5% Ethanol, 5% Benzyl Alcohol, 85% Castor Oil, read-out: Solubility
  solubility: 24.4 mg/mL
[1]; solvent mixture, oil or lipid, thermodynamic from solid, No 4 (% w/v): 25% Oleic Acid, 75% Castor Oil, read-out: Solubility
  solubility: 18.2 mg/mL
[1]; solvent mixture, oil or lipid, thermodynamic from solid, No 3 (% w/v): 50% Castor Oil, 50% Oleic Acid, read-out: Solubility
  solubility: 20 mg/mL
[1]; solvent/detergent mixture, oil or lipid, thermodynamic from solid, No 1 (% w/v): 99% Oleic Acid, 1% Poly. 20, read-out: Solubility
  solubility: 4.08 mg/mL
[1]; solvent/detergent mixture, oil or lipid, thermodynamic from solid, No 2 (% w/v): 99% Castor Oil, 1% Poly. 20, read-out: Solubility
  solubility: 23.2 mg/mL
[1]; solvent/detergent mixture, oil or lipid, thermodynamic from solid, No 22 (% w/v): 5% HS 15, 5% Ethanol, 5% Benzyl Alcohol, 85% Castor Oil, read-out: Solubility
  solubility: 39.2 mg/mL
[1]; solvent/detergent mixture, oil or lipid, thermodynamic from solid, No 23 (% w/v): 5% Cremophor RH 40, 5% Ethanol, 5% Benzyl Alcohol, 85% Castor Oil, read-out: Solubility
  solubility: 38 mg/mL
[1]; solvent/detergent mixture, oil or lipid, thermodynamic from solid, No 24 (% w/v): 44.5% Oleic Acid, 44.5% Castor Oil, 5% Ethanol, 5% Benzyl Alcohol, 1% Poly. 20, read-out: Solubility
  solubility: 51.9 mg/mL
[1]; solvent/detergent mixture, oil or lipid, thermodynamic from solid, No 25 (% w/v): 67% Oleic Acid, 22% Castor Oil, 5% Ethanol, 5% Benzyl Alcohol, 1% Poly. 20, read-out: Solubility
  solubility: 41 mg/mL
[2]; fulvestrant in benzyl alcohol
  solubility: > 200 mg/mL
[2]; fulvestrant in ethanol
  solubility: > 200 mg/mL
[3]; Cremophor RH40, aqueous with cosolvent or surfactant or cyclodextrin
  solubility: 47.2 mg/mL (≈ 77.9 mM)
[3]; N,N-dimethylacetamide (DCAM), organic solvent or mixture
  solubility: 306 mg/mL (≈ 504 mM)
[3]; PEG 300, organic solvent or mixture
  solubility: 28.3 mg/mL (≈ 46.6 mM)
[3]; PEG 400, organic solvent or mixture
  solubility: 24.8 mg/mL (≈ 40.9 mM)
[3]; benzyl alcohol, organic solvent or mixture
  solubility: 269 mg/mL (≈ 443 mM)
[3]; benzyl benzoate, organic solvent or mixture
  solubility: 3.9 mg/mL (≈ 6.43 mM)
[3]; butyric acid, organic solvent or mixture
  solubility: 318 mg/mL (≈ 524 mM)
[3]; castor oil, oil or lipid
  solubility: 21.2 mg/mL (≈ 34.9 mM)
[3]; dimethylsulfoxide (DMSO), organic solvent or mixture
  solubility: 320 mg/mL (≈ 527 mM)
[3]; ethanol, organic solvent or mixture
  solubility: 445 mg/mL (≈ 734 mM)
[3]; heptanoic acid, organic solvent or mixture
  solubility: 154 mg/mL (≈ 255 mM)
[3]; hexanoic acid, organic solvent or mixture
  solubility: 266 mg/mL (≈ 438 mM)
[3]; octanoic acid, organic solvent or mixture
  solubility: 92.2 mg/mL (≈ 152 mM)
[3]; oleic acid, oil or lipid
  solubility: 4.8 mg/mL (≈ 7.91 mM)
[3]; olive oil, oil or lipid
  solubility: 0.4 mg/mL (≈ 0.659 mM)
[3]; propanoic acid, organic solvent or mixture
  solubility: 319 mg/mL (≈ 526 mM)
[3]; propylene glycol, organic solvent or mixture
  solubility: 39.1 mg/mL (≈ 64.4 mM)
[3]; ricinoleic acid, oil or lipid
  solubility: 26 mg/mL (≈ 42.8 mM)
